In patent publication US20150051210A1, “Tyrosine Kinase Inhibitor Combinations and their Use” (Novartis AG, priority 2012, published 2015):

Legend:
KYM-1 cells = assay: Combination assay (concentration matrix, resazurin, Loewe synergy) in KYM-1; format: cell-based; conditions: KYM-1, checkerboard layout, monolayer / non-adherent / semi-solid media
Protocol: Combinatorial anti-proliferative effects of Cpd. B (“B) in the tables below) and BGJ398 (“C” in the tables below) were measured in KYM-1, MG-63, and Hs-683 cells on 96-well-plates using the concentration matrix depicted below:
Cells were grown under three different conditions (see FIG. 7): Experiments labeled “monolayer” were conducted on regular tissue culture plates, allowing cells to adhere and eventually form a monolayer. Cells were seeded on 3 plates per experiment (triplicates) in standard growth media as described above at a density of 5000 per well. Six to eight wells on a separate plate were seeded to quantify the amount of viable cells at the point of compound addition. […] At the same time, viable cells on the separate plate mentioned above were quantified using a resazurin sodium salt dye reduction readout. […] Quantification of Synergy was done using the methods described in G. R. Zimmermann et al., Drug Discovery Today, Vol. 12, No. ½, 2007, pages 34 to 42, and especially J. Lehár et al., Nature Biotechnology Vol. 27, No. 7, 2009, pages 659 to 666, in short by iteratively calculating the Loewe additive response ILoewe (X, Y) at each dose matrix point from the single-agent response curves, and then summing the differences between ILoewe and the experimental data. […]

[1] = tested on: patient-derived non-small cell lung cancer xenograft LXFL 1121; assay: In vivo anti-tumor efficacy study in xenograft LXFL 1121; conditions: for anti-tumor effect compared to vehicle control / Δ tumor volume: Cpd. B 10 mg/kg bid/qd; for anti-tumor effect compared to vehicle control: BGJ398 40 mg/kg qd orally, 18 days; for Δ tumor volume: end values, BGJ398 40 mg/kg qd, control C 309.6
Protocol: The in vivo anti-tumor efficacy study in the patient-derived non-small cell lung cancer xenograft LXFL 1121 was carried out. Xenografts were grown subcutaneously in nude mice. Eight tumor-bearing mice each were treated with either vehicle control, Cpd. B alone, BGJ398 alone or both drugs in combination at the doses and frequencies indicated. Note that frequency of Cpd. […] Tumor volumes were measured on the indicated days and synergy of the combination treatment was assessed by the method of Clarke, R., Breast Cancer Res. Treat., […].
Mice bearing xenografts derived from this model were randomized to 4 groups that were then treated with a vehicle control, Cpd. B as single agent, BGJ398 as single agent or a combination of both drugs. Cpd. B was commenced at a dose of 10 mg/kg twice daily. BGJ398 was given orally at a dose of 40 mg/kg once daily, and the same regimen for both drugs was used in combination. […] The study was continued in this setup until day 18.
The significance of combination data was assessed using the method presented by Clark (2), which can estimate interactions from limited data. For compound A, B or the combination AB (with control group C), the end values are collected. Antagonism is predicted when the calculation AB/C>A/C×B/C, additive AB/C=A/C×B/C, synergistic interactions are predicted to occur when […].

[2] = tested on: phosphorylation of MET, FRS2, ERK, AKT in RT-112; assay: Western blots of protein phosphorylation in RT-112 cells; format: cell-based
Protocol: Western Blots (Figures not Shown) MKN-45 and RT-112 cells were treated in 6-well plates for 2 hours and 18 hours in the presence or absence of purified protein (rhFGF7, rhNRG1-31, or rhHGF), and/or inhibitor (Cpd. B, Cpd. A, BGJ398). Following wash with ice-cold PBS, cells were lysed with RIPA buffer (Thermo) containing phosphatase (Thermo) and proteinase (Roche) inhibitor cocktails. Total protein was quantified by bicinchoninic protein assay (Pierce). Aliquots of 20 μg were resolved by electrophoresis on NuPAGE SDS-PAGE 4-12% BIS-Tris gels before transfer to nitrocellulose membranes. Membranes were blocked for one hour at room temperature before overnight incubation at 4° C. with the following primary antibodies (source rabbit, 1:1000 final dilution): anti-phospho-Akt (Ser473), anti-phospho-MET (Tyr1234/1235), anti-phospho-MAPK/ERK(1/2) (Thr202/Tyr204), anti-AKT, anti-MAPK/Erk(1/2), and anti-α/β-Tubulin . Anti-MET was probed at 1:800 final dilution An internal antibody was used for phospho-FRS2(Y346) (1:1500 dilution). Membranes were then washed 3 times in PBS+0.1% Tween before addition of secondary antibody, IRDye 680LT goat anti-rabbit IgG , dilution 1:15000. After one hour at room temperature, membranes were washed and bands were visualized using an Odyssey Infrared Imager.

[3] = Δ tumor volume relative to control group C

Structure (SMILES) | growth suppression (KYM-1 cells) | anti-tumor effect compared to vehicle control [1] | Δ tumor volume [1] | A/C [1, 3] | prevention of HGF rescue of ERK phosphorylation ([2]; RT-112, BGJ398 plus HGF, simultaneous addition) | MET phosphorylation ([2]; RT-112, absence of ligands) | B/C [1, 3] | FRS2 and ERK phosphorylation ([2]; RT-112, absence of ligands)
CNC(=O)c1ccc(-c2cnc3ncc(Cc4ccc5ncccc5c4)n3n2)cc1F [Cpd. B, 2-fluoro-N-methyl-4-[(7-quinolin-6-yl-methyl)-imidazo[1,2-b]triazin-2-yl]benzamide] | no effect | very modest, statistically not significant anti-tumor effect | 333.6 | 1.078 | prevented this rescue effect | specifically inhibited MET phosphorylation | – | –
CCN1CCN(c2ccc(Nc3cc(N(C)C(=O)Nc4c(Cl)c(OC)cc(OC)c4Cl)ncn3)cc2)CC1 [BGJ398, 3-(2,6-dichloro-3,5-dimethoxy-phenyl)-1-{6-[4-(4-ethylpiperazin-1-yl)-phenylamino]-pyrimidin-4-yl}-1-methyl-urea] | partial growth suppression | strong tumor growth inhibition resulting in stable disease | −16.6 | – | – | – | −0.054 | reduced both FRS2 and ERK phosphorylation
